The source of these data is PubChem BioAssay (NCI).

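Briefly, cells in 96-well plates were exposed to five compound concentrations for 48 h, and endpoints were estimated by linear interpolation. The concentration for 50% growth inhibition is given as GI50. TGI denotes the concentration required for complete inhibition of growth.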 A value given as a limit tells only on which side of the number the result lay.

Among the test systems are DLD-1 colon; ACHN renal; HOP-18 NSCLC; T-47D breast; SK-MEL-5 melanoma; KM20L2 colon; NCI/ADR-RES ovarian; LOX IMVI melanoma; MDA-MB-435; HOP-62 NSCLC.
Common to all, as to assay: NCI anticancer screen, dose series, 48 h

With `CCC[CH2][Sn]([CH2]CCC)([O]C(=O)c1ccc(OC)c(OC)c1OC)[O][Sn]([CH2]CCC)([CH2]CCC)[O]C(=O)c1ccc(OC)c(OC)c1OC`, the GI50 was 147 nM with DLD-1 colon; 259 nM with ACHN renal; 270 nM in the assay on HOP-18 NSCLC; 31.1 nM with T-47D breast; 604 nM in the assay with SK-MEL-5 melanoma; 760 nM with KM20L2 colon. Moreover, the GI50 in the assay with NCI/ADR-RES ovarian is 843 nM; with LOX IMVI melanoma, 134 nM; in the assay with MDA-MB-435 it was 579 nM; with HOP-62 NSCLC, 1610 nM. The TGI in the assay with DLD-1 colon was found to be 419 nM; in the assay with ACHN renal, 583 nM; in the assay on HOP-18 NSCLC, 473 nM; in the assay with T-47D breast, 295 nM; with SK-MEL-5 melanoma, 1810 nM; in the assay on KM20L2 colon it was 2120 nM. Moreover, the TGI in the assay with NCI/ADR-RES ovarian came to 2140 nM; in the assay on LOX IMVI melanoma it was 292 nM; in the assay with MDA-MB-435, 1900 nM; in the assay with HOP-62 NSCLC it was 2980 nM.

As for `Cc1c(N(C)C)ccc2c(=O)c3cccc(CC(=O)O)c3oc12`, the TGI in the assay with DLD-1 colon, with ACHN renal, with HOP-18 NSCLC, with T-47D breast, in the assay on SK-MEL-5 melanoma and in the assay with KM20L2 colon was more than 100000 nM each time. For the same molecule, the TGI with NCI/ADR-RES ovarian, with LOX IMVI melanoma, in the assay on MDA-MB-435 and in the assay with HOP-62 NSCLC was more than 100000 nM in each case.

With `CCOC(=O)N[C@H]1CCc2cc(OC)c(OC)c(OC)c2-c2ccc(SC)c(=O)cc21`, the TGI was more than 100000 nM with DLD-1 colon; more than 100000 nM in the assay on ACHN renal; more than 100000 nM with HOP-18 NSCLC; more than 100000 nM in the assay on T-47D breast; less than 10 nM in the assay with KM20L2 colon; more than 100000 nM in the assay on NCI/ADR-RES ovarian. Further, the TGI in the assay with LOX IMVI melanoma and in the assay on HOP-62 NSCLC was more than 100000 nM each time. Moreover, the GI50 in the assay on NCI/ADR-RES ovarian is 31.9 nM.

Consider `N#C/C(=C\c1ccc2ccccc2c1)C(=O)c1ccccc1`, for which the TGI was more than 100000 nM with DLD-1 colon; more than 100000 nM in the assay with ACHN renal; more than 100000 nM with HOP-18 NSCLC; more than 100000 nM with T-47D breast; more than 78500 nM in the assay on SK-MEL-5 melanoma; more than 100000 nM with KM20L2 colon. The TGI in the assay on LOX IMVI melanoma came out at 52000 nM; with MDA-MB-435, 43200 nM; with HOP-62 NSCLC, 51400 nM.

Turning to `c1ccc2c(OCCSCCCCCCCCCCSCCOc3cccc4ccccc34)cccc2c1`, the TGI in the assay on DLD-1 colon, with ACHN renal, in the assay on HOP-18 NSCLC, in the assay with SK-MEL-5 melanoma, with KM20L2 colon and with LOX IMVI melanoma was more than 100000 nM each time. Besides, the TGI with HOP-62 NSCLC was more than 100000 nM.
